Like-named read-outs stand apart in the source and are kept apart here.
How the values were obtained:
[1] = system: plasmodium berghei; assay: suppression of parasitemia in mice infected with plasmodium berghei; format: in vivo; details: for ED50: Plasmodium berghei, sc; for ED50 / Mean % Parasitemia / Mean % Suppression / % died: mice
Experimental: Five representative amidinoureas were tested in mice infected with plasmodium berghei. The five compounds tested are the following:
Groups of 10 mice each were used in seven doses totaling 70 mice per compound. The protozoal infection was induced by intraperitoneal injection of 5,000,000 parasitized blood cells from a donor. The compound was administered subcutaneously in doses ranging from 0.15 to 10 mg. per kg., suspended on 0.5% methacel solution (doses expressed as base). The compound was repeatedly injected on the day of inoculation (day 1), day 2 and day 3. Blood smears were performed on days 4, 5, 6 and 10.
Untreated control but infected mice developed fulminating parasitemia of as high as 35% on day 10 and deaths occurred from day 12 to 14.

[2] = triazine form/metabolite, cited from earlier work; for usefulness in therapy: malaria
[3] = s.c., 1.0 mg/kg on days 1-3, 4th day
[4] = s.c., 1.0 mg/kg on days 1-3, 5th day
[5] = s.c., 1.0 mg/kg on days 1-3, 6th day
[6] = s.c., 1.0 mg/kg on days 1-3, 10th day
[7] = s.c., 2.0 mg/kg on days 1-3, 4th day
[8] = s.c., 2.0 mg/kg on days 1-3, 5th day
[9] = s.c., 2.0 mg/kg on days 1-3, 6th day
[10] = s.c., 2.0 mg/kg on days 1-3, 10th day
[11] = s.c., 10.0 mg/kg on days 1-3, 4th day
[12] = s.c., 10.0 mg/kg on days 1-3, 5th day
[13] = s.c., 10.0 mg/kg on days 1-3, 6th day
[14] = s.c., 10.0 mg/kg on days 1-3, 10th day
[15] = s.c., .15 mg/kg on days 1-3, 4th day
[16] = s.c., .15 mg/kg on days 1-3, 5th day
[17] = s.c., .15 mg/kg on days 1-3, 6th day
[18] = s.c., .15 mg/kg on days 1-3, 10th day
[19] = s.c., .20 mg/kg on days 1-3, 4th day
[20] = s.c., .20 mg/kg on days 1-3, 5th day
[21] = s.c., .20 mg/kg on days 1-3, 6th day
[22] = s.c., .20 mg/kg on days 1-3, 10th day
[23] = s.c., .30 mg/kg on days 1-3, 4th day
[24] = s.c., .30 mg/kg on days 1-3, 5th day
[25] = s.c., .30 mg/kg on days 1-3, 6th day
[26] = s.c., .30 mg/kg on days 1-3, 10th day
[27] = s.c., .50 mg/kg on days 1-3, 4th day
[28] = s.c., .50 mg/kg on days 1-3, 5th day
[29] = s.c., .50 mg/kg on days 1-3, 6th day
[30] = s.c., .50 mg/kg on days 1-3, 10th day

Structure (SMILES): CNC(=N)NC(=O)Nc1c(C)cc(Br)cc1Cl.Cl [Compound C, 1-(4-bromo-2-chloro-6-methylphenyl)-3-methylamidinourea hydrochloride]
- ED50 ([1]; 96 h, s.c., levels of parasitemia, 4th day, read-out: SED50 (Suppressant Effective Dose50)): 1.12 mg/kg
- ED50 ([1]; 120 h, s.c., levels of parasitemia, 5th day, read-out: SED50 (Suppressant Effective Dose50)): 1.12 mg/kg
- ED50 ([1]; 144 h, s.c., levels of parasitemia, 6th day, read-out: SED50 (Suppressant Effective Dose50)): 1.39 mg/kg
- ED50 ([1]; 240 h, s.c., levels of parasitemia, 10th day, read-out: SED50 (Suppressant Effective Dose50)): 3.99 mg/kg
- ED50 ([1]; day 4 to day 10, read-out: HIGHEST SED50): 3.99 mg/kg
- ED50 ([1]; day 4 to day 10, read-out: LOWEST SED50): 1.12 mg/kg
- FACTOR (HIGHEST SED50 ÷ LOWEST SED50) ([1]; factor of change, day 4 to day 10, duration of action): 3.56
- Mean % Parasitemia [1, 3]: 2.75%
- Mean % Suppression [1, 3]: 47.6%
- Mean % Parasitemia [1, 4]: 3.60%
- Mean % Suppression [1, 4]: 50.7%
- Mean % Parasitemia [1, 5]: 5.20%
- Mean % Suppression [1, 5]: 44.1%
- Mean % Parasitemia [1, 6]: 28.30%
- Mean % Suppression [1, 6]: 20.3%
- % died ([1]; s.c., 1.0 mg/kg on days 1-3, 12th day): 20%
- % died ([1]; s.c., 1.0 mg/kg on days 1-3, 13th day): 60%
- % died ([1]; s.c., 1.0 mg/kg on days 1-3, 14th day): 60%
- Mean % Parasitemia [1, 7]: 1.50%
- Mean % Suppression [1, 7]: 71.4%
- Mean % Parasitemia [1, 8]: 1.90%
- Mean % Suppression [1, 8]: 74.0%
- Mean % Parasitemia [1, 9]: 4.10%
- Mean % Suppression [1, 9]: 56.0%
- Mean % Parasitemia [1, 10]: 24.28%
- Mean % Suppression [1, 10]: 31.6%
- % died ([1]; s.c., 2.0 mg/kg on days 1-3, 12th day): 20%
- % died ([1]; s.c., 2.0 mg/kg on days 1-3, 13th day): 20%
- % died ([1]; s.c., 2.0 mg/kg on days 1-3, 14th day): 40%
- Mean % Parasitemia [1, 11]: 0%
- Mean % Suppression [1, 11]: 100.0%
- Mean % Parasitemia [1, 12]: 0%
- Mean % Suppression [1, 12]: 100.0%
- Mean % Parasitemia [1, 13]: 0%
- Mean % Suppression [1, 13]: 100.0%
- Mean % Parasitemia [1, 14]: 0%
- Mean % Suppression [1, 14]: 100.0%
- % died ([1]; s.c., 10.0 mg/kg on days 1-3, 12th day): 0%
- % died ([1]; s.c., 10.0 mg/kg on days 1-3, 13th day): 0%
- % died ([1]; s.c., 10.0 mg/kg on days 1-3, 14th day): 0%
- Mean % Parasitemia [1, 15]: 5.00%
- Mean % Suppression [1, 15]: 4.8%
- Mean % Parasitemia [1, 16]: 7.20%
- Mean % Suppression [1, 16]: 1.4%
- Mean % Parasitemia [1, 17]: 9.20%
- Mean % Suppression [1, 17]: 1.1%
- Mean % Parasitemia [1, 18]: 35.40%
- Mean % Suppression [1, 18]: 0.3%
- % died ([1]; s.c., .15 mg/kg on days 1-3, 12th day): 20%
- % died ([1]; s.c., .15 mg/kg on days 1-3, 13th day): 40%
- % died ([1]; s.c., .15 mg/kg on days 1-3, 14th day): 80%
- Mean % Parasitemia [1, 19]: 5.00%
- Mean % Suppression [1, 19]: 4.8%
- Mean % Parasitemia [1, 20]: 6.25%
- Mean % Suppression [1, 20]: 14.4%
- Mean % Parasitemia [1, 21]: 9.10%
- Mean % Suppression [1, 21]: 2.2%
- Mean % Parasitemia [1, 22]: 35.10%
- Mean % Suppression [1, 22]: 1.1%
- % died ([1]; s.c., .20 mg/kg on days 1-3, 12th day): 40%
- % died ([1]; s.c., .20 mg/kg on days 1-3, 13th day): 60%
- % died ([1]; s.c., .20 mg/kg on days 1-3, 14th day): 60%
- Mean % Parasitemia [1, 23]: 4.75%
- Mean % Suppression [1, 23]: 9.5%
- Mean % Parasitemia [1, 24]: 6.00%
- Mean % Suppression [1, 24]: 17.8%
- Mean % Parasitemia [1, 25]: 8.30%
- Mean % Suppression [1, 25]: 10.8%
- Mean % Parasitemia [1, 26]: 33.40%
- Mean % Suppression [1, 26]: 5.9%
- % died ([1]; s.c., .30 mg/kg on days 1-3, 12th day): 20%
- % died ([1]; s.c., .30 mg/kg on days 1-3, 13th day): 40%
- % died ([1]; s.c., .30 mg/kg on days 1-3, 14th day): 80%
- Mean % Parasitemia [1, 27]: 4.75%
- Mean % Suppression [1, 27]: 9.5%
- Mean % Parasitemia [1, 28]: 5.20%
- Mean % Suppression [1, 28]: 28.8%
- Mean % Parasitemia [1, 29]: 7.00%
- Mean % Suppression [1, 29]: 24.7%
- Mean % Parasitemia [1, 30]: 31.40%
- Mean % Suppression [1, 30]: 11.5%
- % died ([1]; s.c., .50 mg/kg on days 1-3, 12th day): 0%
- % died ([1]; s.c., .50 mg/kg on days 1-3, 13th day): 20%
- % died ([1]; s.c., .50 mg/kg on days 1-3, 14th day): 80%

Structure (SMILES): [H]/N=C(\N/C(=N/[H])Nc1ccc(Cl)cc1)NC(C)C [chloroguanide]
- excretion from the body [2]: rapidly excreted from the body when in its triazine form
- usefulness in therapy [2]: little or no usefulness

Structure (SMILES): CC1(C)N=C(N)N=C(N)N1c1ccc(Cl)cc1 [triazine metabolite of chloroquanide]
- excretion from the body [2]: rapid excretion from the body
- usefulness in therapy [2]: little or no usefulness in the therapy of humans and monkeys

— patent US4340609A, “Amidinourea derivative veterinary compositions for suppression of parasitemia” (William H. Rorer, Inc., priority 1980, dated 1982)
